This data set in a line: activity coefficient (dimensionless); of the first substance listed, at infinite dilution; xn = mol fraction of the nth substance listed. The note with it: 101.33 kPa, Liquid, Chromatography, x1 = 0.

Data on 26 molecules can be found in the NIST ThermoML archive (doi:10.1021/acs.jced.9b00170).

Numbers after ± are expanded uncertainties.

Take `Cc1ccccc1` [toluene] + CCCC[n+]1ccc(C)cc1.F[B-](F)(F)F: the activity coefficient was found to be 2.66 ± 0.12 (313.1 K), 2.69 ± 0.12 (333.1 K) and 2.73 ± 0.12 (353.1 K).

Consider `CCCCCCC` [heptane] + CCCC[N+]1(C)CCCC1.O=S(=O)([N-]S(=O)(=O)C(F)(F)F)C(F)(F)F, for which the activity coefficient runs as follows: (313.1 K) 17 ± 0.79; (333.1 K) 15.3 ± 0.71; (353.1 K) 13.6 ± 0.62.

As for `CCCCCCCCCC` [decane] + CCCC[n+]1ccc(C)cc1.F[B-](F)(F)F, the activity coefficient runs as follows: (313.1 K) 306 ± 14; (333.1 K) 234 ± 11; (353.1 K) 223 ± 11.

On to `CC1CCCCC1` [methylcyclohexane] + CCCCn1cc[n+](C)c1.F[B-](F)(F)F, for which the activity coefficient amounted to 45.7 ± 2.1 (313.1 K), 40.5 ± 1.9 (333.1 K) and 35.5 ± 1.6 (353.1 K).

For `Cc1ccccc1C` [1,2-dimethylbenzene] + CCCC[N+]1(C)CCCC1.O=S(=O)([N-]S(=O)(=O)C(F)(F)F)C(F)(F)F, the activity coefficient turned out to be 1.57 ± 0.06 (313.1 K), 1.59 ± 0.06 (333.1 K) and 1.61 ± 0.06 (353.1 K).

On to `CCCCCCCCCC` [decane] + CCCC[N+]1(C)CCCC1.O=S(=O)([N-]S(=O)(=O)C(F)(F)F)C(F)(F)F, for which the activity coefficient (313.1 K) turned out to be 50.1 ± 2.3, the activity coefficient (333.1 K) was determined as 45.3 ± 2.1 and the activity coefficient (353.1 K) stood at 40.6 ± 1.9.

Turning to `CC1CCCC1` [methylcyclopentane] + CCCC[N+]1(C)CCCC1.O=S(=O)([N-]S(=O)(=O)C(F)(F)F)C(F)(F)F, the activity coefficient came to 10.3 ± 0.47 (313.1 K), 9.08 ± 0.42 (333.1 K) and 8.11 ± 0.37 (353.1 K).

`Cc1ccccc1` [toluene] + CCCC[N+]1(C)CCCC1.O=S(=O)([N-]S(=O)(=O)C(F)(F)F)C(F)(F)F: the activity coefficient by setting is: (313.1 K) 1.22 ± 0.04; (333.1 K) 1.29 ± 0.04; (353.1 K) 1.37 ± 0.05.

In the case of `CCCCCC` [hexane] + CCCC[N+]1(C)CCCC1.O=S(=O)([N-]S(=O)(=O)C(F)(F)F)C(F)(F)F, the activity coefficient (313.1 K) came to 12.6 ± 0.58, the activity coefficient (333.1 K) is 10.2 ± 0.47 and the activity coefficient (353.1 K) amounted to 9.5 ± 0.44.

`CC1CCCC1` [methylcyclopentane] + CCCCn1cc[n+](C)c1.F[B-](F)(F)F: the activity coefficient stood at 35.6 ± 1.7 (313.1 K), 30.6 ± 1.4 (333.1 K) and 28.8 ± 1.3 (353.1 K).

As for `CCCCCCCCC` [nonane] + CCCC[N+]1(C)CCCC1.O=S(=O)([N-]S(=O)(=O)C(F)(F)F)C(F)(F)F, the activity coefficient is, setting by setting: (313.1 K) 33.1 ± 1.5; (333.1 K) 29.2 ± 1.4; (353.1 K) 26.8 ± 1.2.

On to `Cc1ccccc1C` [1,2-dimethylbenzene] + CCCCn1cc[n+](C)c1.F[B-](F)(F)F, for which the activity coefficient reads like this: (313.1 K) 4.55 ± 0.21; (333.1 K) 4.51 ± 0.21; (353.1 K) 4.49 ± 0.2.

`CCCCCCCCC` [nonane] + CCCC[n+]1ccc(C)cc1.F[B-](F)(F)F: the activity coefficient stood at 182 ± 8.6 (313.1 K), 153 ± 7.2 (333.1 K) and 131 ± 6.2 (353.1 K).

Consider `Cc1ccccc1` [toluene] + CCCCn1cc[n+](C)c1.F[B-](F)(F)F, for which the activity coefficient is, setting by setting: (313.1 K) 3.28 ± 0.15; (333.1 K) 3.33 ± 0.15; (353.1 K) 3.4 ± 0.15.

Consider `CCCCCCCC` [octane] + CCCC[N+]1(C)CCCC1.O=S(=O)([N-]S(=O)(=O)C(F)(F)F)C(F)(F)F, for which the activity coefficient reads like this: (313.1 K) 23.7 ± 1.1; (333.1 K) 20.8 ± 0.96; (353.1 K) 19.1 ± 0.88.

As to `CCCCCCCCCC` [decane] + CCCCn1cc[n+](C)c1.F[B-](F)(F)F, the activity coefficient (313.1 K) is 177 ± 8.4, the activity coefficient (333.1 K) came to 144 ± 6.8 and the activity coefficient (353.1 K) is 125 ± 5.9.

Consider `CCCCCCC` [heptane] + CCCCn1cc[n+](C)c1.F[B-](F)(F)F, for which the activity coefficient is, setting by setting: (313.1 K) 78.7 ± 3.7; (333.1 K) 69 ± 3.2; (353.1 K) 62.2 ± 2.9.

On to `CC1CCCCC1` [methylcyclohexane] + CCCC[n+]1ccc(C)cc1.F[B-](F)(F)F, for which the activity coefficient reads like this: (313.1 K) 41.5 ± 1.9; (333.1 K) 34.8 ± 1.6; (353.1 K) 33.1 ± 1.5.

On to `CCCCCC` [hexane] + CCCCn1cc[n+](C)c1.F[B-](F)(F)F, for which the activity coefficient (313.1 K) is 56.7 ± 2.6, the activity coefficient (333.1 K) is 47.8 ± 2.2 and the activity coefficient (353.1 K) is 45.2 ± 2.1.

With `CC1CCCC1` [methylcyclopentane] + CCCC[n+]1ccc(C)cc1.F[B-](F)(F)F, the activity coefficient was 31.3 ± 1.4 (313.1 K), 26.4 ± 1.2 (333.1 K) and 25.8 ± 1.2 (353.1 K).

With `CCCCCCCC` [octane] + CCCCn1cc[n+](C)c1.F[B-](F)(F)F, the activity coefficient is, setting by setting: (313.1 K) 92.2 ± 4.3; (333.1 K) 83.7 ± 3.9; (353.1 K) 72.4 ± 3.4.

Turning to `CCCCCC` [hexane] + CCCC[n+]1ccc(C)cc1.F[B-](F)(F)F, the activity coefficient reads like this: (313.1 K) 59.8 ± 2.8; (333.1 K) 52.4 ± 2.4; (353.1 K) 49 ± 2.3.

Consider `CCCCCCC` [heptane] + CCCC[n+]1ccc(C)cc1.F[B-](F)(F)F, for which the activity coefficient reads like this: (313.1 K) 84.8 ± 4; (333.1 K) 73.7 ± 3.5; (353.1 K) 67.4 ± 3.1.

Take `Cc1ccccc1C` [1,2-dimethylbenzene] + CCCC[n+]1ccc(C)cc1.F[B-](F)(F)F: the activity coefficient (313.1 K) was determined as 4.48 ± 0.2, the activity coefficient (333.1 K) came to 4.55 ± 0.21 and the activity coefficient (353.1 K) was found to be 4.59 ± 0.21.

As to `CC1CCCCC1` [methylcyclohexane] + CCCC[N+]1(C)CCCC1.O=S(=O)([N-]S(=O)(=O)C(F)(F)F)C(F)(F)F, the activity coefficient amounted to 8.53 ± 0.39 (313.1 K), 7.52 ± 0.34 (333.1 K) and 6.76 ± 0.31 (353.1 K).

Turning to `CCCCCCCC` [octane] + CCCC[n+]1ccc(C)cc1.F[B-](F)(F)F, the activity coefficient (313.1 K) is 130 ± 6.1, the activity coefficient (333.1 K) amounted to 107 ± 5 and the activity coefficient (353.1 K) turned out to be 99.8 ± 4.7.
